Experiments:
Format in all cases: cell-based
Alternaria alternata = assay: MIC and synergy on Malt Agar; conditions: 28° C., 10–12 days
Method: (§1) One hundred μl of the bacterial suspensions were added to TSB broth containing each biocide or biocide mixture to a final concentration of approximately 10^6 CFU/ml. The inoculated broth was then incubated at 32° C. for 2–3 days. For fungi MIC, 10 μl of the fungi suspensions were pipetted to the solidified Malt agar containing various concentrations of each biocide or the biocide mixture. Final concentration about 10^5 spores/ml. Plates were incubated for 10–12 days at 28° C.
(§2) The lowest concentration of each compound or mixture to inhibit visible growth at 32° C. after 2–3 days for bacteria and at 28° after 10–12 days for fungi were taken as the Minimal Inhibitory Concentration (MIC). The MIC was taken as endpoints of activity. End points for the mixture of HMBO and IPBC where then compared with the end points for the pure active compound when employed individually.
(§3) Synergism was determined by a commonly used method described by Kull, A. C., Eisman, P. C, Sylwestrowicz, H., D. and Mayer, R. L. (1961). Applied Microbiology, 9:538 using the ratio determined by: Qa/QA+Qb/QB=Synergy Index (SI).
(§4) Wherein: QA is the concentration of HMBO in parts per million (ppm), acting alone, which produced and end point. Qa is the concentration of HMBO in ppm, in the mixture, which produced and end point. QB is the concentration of IPBC in ppm, acting alone, which produced an end point and Qb is the concentraton of IPBC in ppm, in the mixture, which produced an end point.
(§5) When the sum of Qa/QA+Qb/QB is greater than one, antagonism is indicated. When the sum is equal to one, additivity is indicated.

[1] = tested on: Aspergillus niger (ATCC 6275); assay: MIC and synergy on Malt Agar; conditions: 28° C., 10–12 days
Method: as §1, §2, §3, §4, §5

[2] = tested on: Bacillus subtilis (ATCC 27328); assay: MIC and synergy in Tryptic Soy Broth; conditions: TSB, 32° C., 2–3 days
Method: as §1, §2, §3
Wherein: QA is the concentration of HMBO in parts per million (ppm), acting alone, which produced and end point. Qa is the concentration of HMBO in ppm, in the mixture, which produced and end point. […]

[3] = tested on: mixed culture of Pseudomonas aeruginosa, Enterobacter cloacae, Bacillus subtilis, B. megaterium, B. licheniformis, Aspergillus niger and Penicillium …; assay: Latex paint in-can preservation, ASTM D2574-94, mixed inoculum; design: key: 0: no growth; 4: heavy growth
Method: The efficacy of each individual compound or their combination was measured in a latex paint artificially contaminated with a mixed inoculum. The microbiological evaluations shown as examples, are based on ASTM D2574–94, “Resistance of emulsion paints in the container to the attack of microorganisms”. Briefly, paint samples (e.g. Polyvinyl Acrylic, PCL 717) were prepared to contain different concentrations of each compound or their mixtures in different concentrations and ratios. Each paint sample thus prepared was then inoculated with a mixed culture of Pseudomonas aeruginosa, Enterobacter cloacae, Bacillus subtilis, B. megaterium, B. licheniformis, Aspergillus niger and Penicillium funiculosum (final concentration of about 10^6 CFU/ml) and re-challenged after 7 days (final concentration of about 10^7 CFU/ml). Paint samples were incubated at 32° C. for the duration of the test and sampled for the presence of viable bacteria on TSA and M plates. Growth was rated on a scale from “0” (no growth) to “4” (heavy growth). A paint sample was considered appropriately preserved if no bacterial growth (“0” rating) was detected after six days incubation in both challenge assays.
The table summarizes the results obtained when mixtures of the low formaldehyde hydroxymethyl oxazolidine (HMBO) (compound A) and IPBC (compound B) in PEG-400 were tested.

Compound: CCCCNC(=O)OCC#CI [compound B, iodopropynyl butyl carbamate]
- Minimal Inhibitory Concentration (MIC), acting alone (Alternaria alternata): 0.50 ppm
- Minimal Inhibitory Concentration (MIC), acting alone [1]: 0.25 ppm
- Minimal Inhibitory Concentration (MIC), acting alone [2]: 62.5 ppm
- Growth rating MALT Plates CI 1 ([3]; B alone 60 ppm): 0
- Growth rating MALT Plates CI 2 ([3]; B alone 60 ppm): 1
- Growth rating MALT Plates CI 3 ([3]; B alone 60 ppm): 0
- Growth rating MALT Plates CI 6 ([3]; B alone 60 ppm): 0
- Growth rating MALT Plates CII 1 ([3]; B alone 60 ppm): 4
- Growth rating MALT Plates CII 2 ([3]; B alone 60 ppm): 4
- Growth rating MALT Plates CII 3 ([3]; B alone 60 ppm): 4
- Growth rating MALT Plates CII 6 ([3]; B alone 60 ppm): 4
- Growth rating TSA plates CI 1 ([3]; B alone 60 ppm): 0
- Growth rating TSA plates CI 2 ([3]; B alone 60 ppm): 0
- Growth rating TSA plates CI 3 ([3]; B alone 60 ppm): 1
- Growth rating TSA plates CI 6 ([3]; B alone 60 ppm): 0
- Growth rating TSA plates CII 1 ([3]; B alone 60 ppm): 4
- Growth rating TSA plates CII 2 ([3]; B alone 60 ppm): 4
- Growth rating TSA plates CII 3 ([3]; B alone 60 ppm): 4
- Growth rating TSA plates CII 6 ([3]; B alone 60 ppm): 3
- Growth rating MALT Plates CI 1 ([3]; B alone 120 ppm): 4
- Growth rating MALT Plates CI 2 ([3]; B alone 120 ppm): 4
- Growth rating MALT Plates CI 3 ([3]; B alone 120 ppm): 2
- Growth rating MALT Plates CI 6 ([3]; B alone 120 ppm): 0
- Growth rating MALT Plates CII 1 ([3]; B alone 120 ppm): 4
- Growth rating MALT Plates CII 2 ([3]; B alone 120 ppm): 4
- Growth rating MALT Plates CII 3 ([3]; B alone 120 ppm): 4
- Growth rating MALT Plates CII 6 ([3]; B alone 120 ppm): 4
- Growth rating TSA plates CI 1 ([3]; B alone 120 ppm): 4
- Growth rating TSA plates CI 2 ([3]; B alone 120 ppm): 2
- Growth rating TSA plates CI 3 ([3]; B alone 120 ppm): 0
- Growth rating TSA plates CI 6 ([3]; B alone 120 ppm): 0
- Growth rating TSA plates CII 1 ([3]; B alone 120 ppm): 4
- Growth rating TSA plates CII 2 ([3]; B alone 120 ppm): 3
- Growth rating TSA plates CII 3 ([3]; B alone 120 ppm): 3
- Growth rating TSA plates CII 6 ([3]; B alone 120 ppm): 3
- Growth rating MALT Plates CI 1 ([3]; B alone 200 ppm): 4
- Growth rating MALT Plates CI 2 ([3]; B alone 200 ppm): 2
- Growth rating MALT Plates CI 3 ([3]; B alone 200 ppm): 1
- Growth rating MALT Plates CI 6 ([3]; B alone 200 ppm): 0
- Growth rating MALT Plates CII 1 ([3]; B alone 200 ppm): 4
- Growth rating MALT Plates CII 2 ([3]; B alone 200 ppm): 4
- Growth rating MALT Plates CII 3 ([3]; B alone 200 ppm): 4
- Growth rating MALT Plates CII 6 ([3]; B alone 200 ppm): 4
- Growth rating TSA plates CI 1 ([3]; B alone 200 ppm): 4
- Growth rating TSA plates CI 2 ([3]; B alone 200 ppm): 2
- Growth rating TSA plates CI 3 ([3]; B alone 200 ppm): 0
- Growth rating TSA plates CI 6 ([3]; B alone 200 ppm): 0
- Growth rating TSA plates CII 1 ([3]; B alone 200 ppm): 4
- Growth rating TSA plates CII 2 ([3]; B alone 200 ppm): 3
- Growth rating TSA plates CII 3 ([3]; B alone 200 ppm): 3
- Growth rating TSA plates CII 6 ([3]; B alone 200 ppm): 3

Compound: OCC12COCN1COC2 [compound A, hydroxymethyl bicyclic oxazolidine]
- Minimal Inhibitory Concentration (MIC), acting alone (Alternaria alternata): 250 ppm
- Minimal Inhibitory Concentration (MIC), acting alone [1]: 1,000 ppm
- Minimal Inhibitory Concentration (MIC), acting alone [2]: 250 ppm
- Growth rating MALT Plates CI 1 ([3]; A alone 500 ppm): 0
- Growth rating MALT Plates CI 2 ([3]; A alone 500 ppm): 0
- Growth rating MALT Plates CI 3 ([3]; A alone 500 ppm): 0
- Growth rating MALT Plates CI 6 ([3]; A alone 500 ppm): 0
- Growth rating MALT Plates CII 1 ([3]; A alone 500 ppm): 0
- Growth rating MALT Plates CII 2 ([3]; A alone 500 ppm): 0
- Growth rating MALT Plates CII 3 ([3]; A alone 500 ppm): 0
- Growth rating MALT Plates CII 6 ([3]; A alone 500 ppm): 0
- Growth rating TSA plates CI 1 ([3]; A alone 500 ppm): 0
- Growth rating TSA plates CI 2 ([3]; A alone 500 ppm): 0
- Growth rating TSA plates CI 3 ([3]; A alone 500 ppm): 0
- Growth rating TSA plates CI 6 ([3]; A alone 500 ppm): 0
- Growth rating TSA plates CII 1 ([3]; A alone 500 ppm): 1
- Growth rating TSA plates CII 2 ([3]; A alone 500 ppm): 1
- Growth rating TSA plates CII 3 ([3]; A alone 500 ppm): 1
- Growth rating TSA plates CII 6 ([3]; A alone 500 ppm): 1
- Growth rating MALT Plates CI 1 ([3]; A alone 520 ppm): 0
- Growth rating MALT Plates CI 2 ([3]; A alone 520 ppm): 0
- Growth rating MALT Plates CI 3 ([3]; A alone 520 ppm): 0
- Growth rating MALT Plates CI 6 ([3]; A alone 520 ppm): 0
- Growth rating MALT Plates CII 1 ([3]; A alone 520 ppm): 0
- Growth rating MALT Plates CII 2 ([3]; A alone 520 ppm): 1
- Growth rating MALT Plates CII 3 ([3]; A alone 520 ppm): 1
- Growth rating MALT Plates CII 6 ([3]; A alone 520 ppm): 0
- Growth rating TSA plates CI 1 ([3]; A alone 520 ppm): 0
- Growth rating TSA plates CI 2 ([3]; A alone 520 ppm): 0
- Growth rating TSA plates CI 3 ([3]; A alone 520 ppm): 0
- Growth rating TSA plates CI 6 ([3]; A alone 520 ppm): 0
- Growth rating TSA plates CII 1 ([3]; A alone 520 ppm): 0
- Growth rating TSA plates CII 2 ([3]; A alone 520 ppm): 0
- Growth rating TSA plates CII 3 ([3]; A alone 520 ppm): 1
- Growth rating TSA plates CII 6 ([3]; A alone 520 ppm): 0
